Measurements from patent US7122184B2, “Specific monoclonal antibody against terbinafine” (Novartis AG, priority 2000, dated 2006).

Legend:
[1] = system: purified antibodies from hybridoma cell line LAM-JA; experiment: Competitive ELISA for terbinafine derivatives (crossreactivity); format: binding, mice; details: for Inhibition (%) at terbinafine concentration (μg/ml) 0.0001: competitor 0.0001 μg/ml; for Inhibition (%) at terbinafine concentration (μg/ml) 0.0001 / Inhibition (%) at terbinafine concentration (μg/ml) 0.001 / Inhibition (%) at terbinafine concentration (μg/ml) 0.01 / Inhibition (%) at terbinafine concentration (μg/ml) 0.1 / Inhibition (%) at terbinafine concentration (μg/ml) 1 / Inhibition (%) at terbinafine concentration (μg/ml) 10: mAb LAM-JA binding to terbinafine-BSA conjugate; for Inhibition (%) at terbinafine concentration (μg/ml) 0.001: competitor 0.001 μg/ml; for Inhibition (%) at terbinafine concentration (μg/ml) 0.01: competitor 0.01 μg/ml; for Inhibition (%) at terbinafine concentration (μg/ml) 0.1: competitor 0.1 μg/ml; for Inhibition (%) at terbinafine concentration (μg/ml) 1: competitor 1 μg/ml; for Inhibition (%) at terbinafine concentration (μg/ml) 10: competitor 10 μg/ml; for % crossreactivity: relative to terbinafine at B/B0=50%, calculated from FIG. 1, mAb LAM-JA
From the text: The antibodies of the invention are screened and characterized in conventional manner, e.g. according to their ability to distinguish between terbinafine and its metabolites and derivatives, e.g. by determination of relative cross-reactivity. […] (1994), Stockton Press, p. 89). Relative crossreactivity is the concentration of analyte giving 50% at the point where the reduction in signal corresponds to 50% of the signal achieved in the absence of analyte (ratio B/B0 of 50%), as a percentage of the analyte concentration giving the same fall in signal.
Microtiter plates are coated with 5 μg/ml terbinafine hydrochloride—protein (BSA) conjugate in carbonate buffer overnight at 4°, then saturated with blocking reagent [SuperBloc® buffer (Pierce)] and washed 3× with 0.05% (v/v) PBS-TWEEN® (polyoxyethylene 20 sorbitan monoleate). The hybridoma supernatants to be screened are diluted in a 1% (w/v) solution of BSA in PBS-TWEEN® (polyoxyethylene 20 sorbitan monoleate), and incubated for 2 hours at 37°. Level of bound antibody is measured by anti-mouse IgG rabbit immunoglobulin coupled to horseradish peroxidase with OPD as the substrate. After incubation for one hour at room temperature the enzymatic substrate is hydrolyzed and absorbance at 490/650 nm is measured after 15 minutes incubation in the dark.
The direct ELISA according to Example 3 above is converted to a competitive ELISA wherein a competitor is added to the monoclonal antibody solution, and binding of the mAB to the conjugate in the presence and absence of the competitor is measured. Standard curves to determine cross-reactivity of a selected antibody to terbinafine and its derivatives are prepared using solutions containing known concentrations of terbinafine and appropriate derivatives (e.g. 10 μ/ml to 0.0001 μg/ml in buffer).
The result of such competitive assay for the purified antibodies from hybridoma cell line LAM-JA (where the immunogen used was carboxy-terbinafine coupled to OVA), is as follows:
The measurement of antibody response to substances other than the analyte is the crossreactivity. It may be “expressed as the point where the reduction in signal corresponds to 50% of the signal achieved in the absence of analyte (B/B0=50%), as a percentage of the analyte concentration giving the same fall in signal” [The Immunoassay Handbook, David Wild, Stockton Press, USA, 1994].
% crossreactivity is calculated as follows from FIG. 1: […]

[2] = HPLC and UV detection of terbinafine metabolites in the nail matrix; details: HPLC with UV detection
From the text: Thus, in relation to the cross-reactivities of the antibodies of the invention with the above metabolites (see Example 4), no detection interferences are likely to be encountered with terbinafine in nails.

SMILES | Inhibition (%) at terbinafine concentration (μg/ml) 0.0001 [1] [%] | Inhibition (%) at terbinafine concentration (μg/ml) 0.001 [1] [%] | Inhibition (%) at terbinafine concentration (μg/ml) 0.01 [1] [%] | Inhibition (%) at terbinafine concentration (μg/ml) 0.1 [1] [%] | Inhibition (%) at terbinafine concentration (μg/ml) 1 [1] [%] | Inhibition (%) at terbinafine concentration (μg/ml) 10 [1] [%] | presence in the nail matrix [2] | % crossreactivity [1]
CN(C/C=C/C#CC(C)(C)C)Cc1cccc2ccccc12 [Terbinafine ch, (E)-N-(6,6-dimethylhept-2-en-4-ynyl)-N-methyl-1-naphthalene methanamine] | 0.99 | −1.92 | 2.70 | 31.5 | 73.8 | 92.6 | – | –
CN(C/C=C/C#CC(C)(C)C(=O)O)Cc1cccc2ccccc12 [Carboxy-terbinafine, (E)-2,2-dimethyl-7-[methyl(naphthalen-1-ylmethyl)amino]hept-5-en-3-ynoic acid] | 0.85 | 2.11 | 4.30 | 25.8 | 63.8 | 89.2 | no hint for the presence | –
CC(C)(C#C/C=C/CNCc1cccc2ccccc12)CO [Desmethyl-hydroxy-terbinafine, (E)-2,2-dimethyl-7-[(naphthalen-1-ylmethyl)amino]hept-5-en-3-yn-1-ol] | 3.60 | 0.79 | 1.60 | 5.30 | 15.7 | 58.0 | no hint for the presence | 4.5%
CC(C)(C#C/C=C/CNCc1cccc2ccccc12)C(=O)O [Desmethyl-carboxy-terbinafine, (E)-2,2-dimethyl-7-[(naphthalen-1-ylmethyl)amino]hept-5-en-3-ynoic acid] | 2.81 | 1.38 | 3.74 | 4.40 | 3.85 | 12.1 | – | not detectable
CN(C/C=C/C#CC(C)(C)CO)Cc1cccc2ccccc12 [Hydroxy-terbinafine, (E)-2,2-dimethyl-7-[methyl(naphthalen-1-ylmethyl)amino]hept-5-en-3-yn-1-ol] | 0.40 | 0.56 | 3.74 | 72.5 | 92.9 | 93.0 | no hint for the presence | –
CC(C)(C)C#C/C=C/CNCc1cccc2ccccc12 [Desmethyl-terbinafine ch, (E)-N-(6,6-dimethylhept-2-en-4-ynyl)-1-naphthalenemethanamine] | −0.45 | −0.14 | 1.55 | 1.22 | 5.96 | 7.87 | measurable | not detectable
